# Key:
# [1] = Encapsulation efficiency of Luc-mRNA lipid nanoparticles (Quant-iT RiboGreen RNA Kit); format: physicochemical; conditions: LNP of amino lipid:DSPC:cholesterol:DMG-PEG2000 47.5:10:41:1.5 with Luc-mRNA; lipid to mRNA mass ratio about 40:1
# Procedure: (§1) The amino lipid compound of the present invention (or DLin-MC3 or SM-102 (both purchased from AVT (Shanghai) Pharmaceutical Technology Co., Ltd.)), phospholipid lipid (DSPC), cholesterol, and PEGylated lipid (DMG-PEG2000) were mixed and dissolved in anhydrous ethanol at a molar ratio of 47.5:10:41:1.5. The resulting ethanol solution and citric acid buffer (50 mM, pH = 4.0) dissolved with Luc-mRNA (TriLink) were mixed in a microfluidic chip at a volume ratio of 1:3 using a microfluidic preparation system to prepare a crude solution of lipid nanoparticles, which was then dialyzed in 1X PBS at 4°C for 6 h using a dialysis cassette (Fisher, MWCO 20,000). The product was filtered through a 0.22 µm microporous filter membrane before use. The mass ratio of the amino lipid compound to luciferase mRNA (Luc mRNA) was about 40:1.
# The encapsulation efficiency was determined according to the standard procedure of the Quant-iT RiboGreen RNA Kit. Table 1 Characterization data of LNPs prepared using representative amino lipid compounds
# primary BMDC cells = test: Transfection of Luc mRNA lipid nanoparticles on primary BMDC cells (ONE-Glo luciferase readout); format: cell-based, C57BL/6 mice; conditions: expression intensity of Luc mRNA on BMDCs; 10 µL LNP per well, 20,000 cells per well, 12 hours
# Procedure: Animal preparation: 6-week-old female C57BL/6 mice weighing about 20 g were selected and raised in an SPF-grade feeding room. Animal experiments were conducted strictly in accordance with the guidelines of the National Institutes of Health and animal ethics requirements.
# Cell acquisition: C57BL/6 mice were sacrificed by cervical dislocation and immersed in 75% alcohol for 5 minutes for disinfection. The thigh and tibia of the mice were dissected and the attached muscles were removed to expose the bone. The bone marrow in the tibia was blown out with a 1 mL syringe filled with PBS. The obtained bone marrow was dispersed by blowing and filtered through a 50 µm filter mesh to remove impurities. Red blood cell lysis solution (3-4 mL) was added to the obtained filtrate and allowed to stand for 5 minutes. Then, the supernatant was removed by centrifugation at 800 g for 5 minutes. The obtained cells were placed in 1640 culture medium (containing 10% fetal bovine serum, 20 ng/mL GMCSF, 10 ng/mL IL4) for being resuspended, and inoculated into 6-well plates at a density of 100,000 cells/mL of culture medium. The plates were placed in a cell culture incubator containing 5% CO2 at 37°C, and the medium was half-changed every 2 days. On the seventh day, the suspended cells and loosely adherent cells were collected and inoculated into 96-well all-white ELISA plates at a density of 20,000 cells per well, with a culture medium volume of 100 µL.
# Cell transfection: the lipid nanoparticles encapsulating luciferase mRNA were added to a 96-well all-white ELISA plate with spreaded primary cells, and the volume of mRNA lipid nanoparticles added to each well was controlled to be 10 µL. Then, the plate was placed in an incubator with 5% CO2 concentration at 37°C for 12 hours.
# Transfection efficiency detection: 20 µL of substrate ONE-Glo™ Luciferase was added to each well of a 96-well all-white ELISA plate, and the assay was performed using a multifunctional microplate reader (Biorek SynergyH1) after 1 min. The expression intensity of Luc mRNA transfected on BMDCs by lipid nanoparticles (LNPs) composed of representative amino lipid compounds is shown in Table 2, with DLin-MC3 and SM0102 as controls. Table 2 Expression intensity of transfection of representative amino lipid compounds on BMDCs
# [2] = Particle size and PDI of Luc-mRNA lipid nanoparticles (Nano-ZS ZEN3600, Malvern); format: physicochemical; conditions: LNP of amino lipid:DSPC:cholesterol:DMG-PEG2000 47.5:10:41:1.5 with Luc-mRNA; lipid to mRNA mass ratio about 40:1
# Procedure: as §1
# The particle size and PDI (polydispersity index) of the prepared lipid nanoparticles were measured by Nano-ZSZEN3600 (Malvern). 20 µL of lipid nanoparticle (LNP) solution was taken for particle size measurement, and cycled three times with each cycle for 30 s.
Compound,Encapsulation efficiency (%) [1],Luminescence intensity (primary BMDC cells),Average particle size (nm) [2],PDI [2]
CCCCCCC(COC(=O)C(CCCCC)CCCCC)OC(=O)CCCCCN(CCCO)CCCCCC(=O)OC(CCCCCC)COC(=O)C(CCCCC)CCCCC (stereo not drawn) [E8CA5B6O3],95.8%,2.3E+05,69 nm,0.06
CCCCCCC(COC(=O)CCCCC)OC(=O)CCCCCN(CCCCCC(=O)OC(CCCCCC)COC(=O)CCCCC)CCCOC(=O)CCCCCCN(C)C (stereo not drawn) [E8LA6B6O3A6],97.6%,2.8E+05,108 nm,0.07
CCCCCCCCCCCC(=O)OCC(CCCCCC)OC(=O)CCCCCN(CCCO)CCCCCC(=O)OC(CCCCCC)COC(=O)CCCCCCCCCCC (stereo not drawn) [E8LA12B6O3],95.67%,,72 nm,0.09
CCCCCCCCCCC(COC(=O)CCCCC)OC(=O)CCCCCN(CCCCCC(=O)OC(CCCCCCCCCC)COC(=O)CCCCC)CCCOC(=O)CCN1CCN(C)CC1 (stereo not drawn) [E12LA6B6O3A2],,4.0E+05,,
CCCCCCCCCCC(COC(=O)CCCCC)OC(=O)CCCCCN(CCCCCC(=O)OC(CCCCCCCCCC)COC(=O)CCCCC)CCCOC(=O)CCCN1CCN(C)CC1 (stereo not drawn) [E12LA6B6O3A3],94.6%,,53 nm,0.07
CCCCCCCCCCC(COC(=O)CCCCC)OC(=O)CCCCCN(CCCCCC(=O)OC(CCCCCCCCCC)COC(=O)CCCCC)CCCOC(=O)CCN(C)C (stereo not drawn) [E12LA6B6O3A4],90.7%,,80 nm,0.03
CCCCCCCCCCC(COC(=O)CCCCC)OC(=O)CCCCCN(CCCCCC(=O)OC(CCCCCCCCCC)COC(=O)CCCCC)CCCOC(=O)CCCCN(C)C (stereo not drawn) [E12LA6B6O3A5],97.8%,1.5 E+05,117 nm,0.08
CCCCCCCCCCC(COC(=O)CCCCC)OC(=O)CCCCCN(CCCCCC(=O)OC(CCCCCCCCCC)COC(=O)CCCCC)CCCOC(=O)C1CCN(C)CC1 (stereo not drawn) [E12LA6B6O3A7],96.5%,7.3 E+04,110 nm,0.05
CCCCCCCCCCC(COC(=O)CCCCC)OC(=O)CCCCCN(CCCCCC(=O)OC(CCCCCCCCCC)COC(=O)CCCCC)CCCOC(=O)CCN1CCCCC1 (stereo not drawn) [E12LA6B6O3A8],95.3%,1.9 E+05,124 nm,0.06
CCCCCCCCCCC(COC(=O)CCCCC)OC(=O)CCCCCN(CCCCC)CCCCCC(=O)OC(CCCCCCCCCC)COC(=O)CCCCC (stereo not drawn) [E12LA6B6O9],93.2%,2.2 E+05,95 nm,0.11
CCCCCCCCCCC(COC(=O)CCCCC)OC(=O)CCCCCN(CCCCCC(=O)OC(CCCCCCCCCC)COC(=O)CCCCC)CCCN(C)C (stereo not drawn) [E12LA6B6O12],97.6%,4.9 E+04,97 nm,0.05
CCCCCCCCCCC(COC(=O)CCCCC)OC(=O)CCCCCN(CCCCCC(=O)OC(CCCCCCCCCC)COC(=O)CCCCC)CCN1CCCCC1 (stereo not drawn) [E12LA6B6O13],94.4%,,83 nm,0.01
CCCCCCCCCCC(COC(=O)CCCCC)OC(=O)CCCCCN(CCCCCC(=O)OC(CCCCCCCCCC)COC(=O)CCCCC)CCN1CCC(O)CC1 (stereo not drawn) [E12LA6B6O15],95.2%,,90 nm,0.12
CCCCCCCCCCCC(=O)OCC(CCCCCCCCCC)OC(=O)CCCCCN(CCCCCC(=O)OC(CCCCCCCCCC)COC(=O)CCCCCCCCCCC)CCCNC(=O)CCCN(C)C (stereo not drawn) [E12LA12B6O3A11],95.6%,1.4E+05,132 nm,0.09
CCCCCCCCCCCC(=O)OCC(CCCCCCCCCC)OC(=O)CCCCCN(CCCO)CCCCCC(=O)OC(CCCCCCCCCC)COC(=O)CCCCCCCCCCC (stereo not drawn) [E12LA12B6O3],97.5%,4.1E+05,73 nm,0.09
CCCCCCCCCCCC(=O)OCC(CCCCCCCCCC)OC(=O)CCCCCN(CCCCCC(=O)OC(CCCCCCCCCC)COC(=O)CCCCCCCCCCC)CCCC(=O)OCCCN(C)C (stereo not drawn) [E12LA12B6O30A9],92.4%,2.7 E+05,121 nm,0.14
CCCCCCCCCCCC(=O)OCC(CCCCCCCCCC)OC(=O)CCCCCN(CCCCCC(=O)OC(CCCCCCCCCC)COC(=O)CCCCCCCCCCC)CCCC(=O)NCCCN(C)C (stereo not drawn) [E12LA12B6O30A10],91.8%,4.1E+05,117 nm,0.08
CCCCCCCCCCCC(=O)OCC(CCCCCCCCCC)OC(=O)CCCCCN(CCCCCC(=O)OC(CCCCCCCCCC)COC(=O)CCCCCCCCCCC)CCCC(=O)O (stereo not drawn) [E12LA12B6O30],98.2%,,127 nm,0.03
CCCCCCCCCCCC(=O)OCC(CCCCCCCCCC)OC(=O)CCCCCN(CCCC#N)CCCCCC(=O)OC(CCCCCCCCCC)COC(=O)CCCCCCCCCCC (stereo not drawn) [E12LA12B6O31],98.4%,9.6 E+04,130 nm,0.04
CCCCCCCCCCC(CNC(=O)CCCCC)NC(=O)CCCCCN(CCCO)CCCCCC(=O)NC(CCCCCCCCCC)CNC(=O)CCCCC (stereo not drawn) [E12N2LA6B6O3],90.3%,,168 nm,0.06
CCCCCCCCCCC(CCCOC(=O)CCCCC)OC(=O)CCCCCN(CCCO)CCCCCC(=O)OC(CCCCCCCCCC)CCCOC(=O)CCCCC (stereo not drawn) [K4LA6B6O3],98.9%,4.9 E+05,120 nm,0.06
CCCCCCCCCCC(CCCCOC(=O)CCCCC)OC(=O)CCCCCN(CCCO)CCCCCC(=O)OC(CCCCCCCCCC)CCCCOC(=O)CCCCC (stereo not drawn) [K5LA6B6O3],96.2%,4.8E+05,106 nm,0.03

# Source: patent publication EP4685136A1, “AMINO LIPID, AND LIPID NANOPARTICLES AND USE THEREOF” (Shenzhen MagicRNA Biotechnology Co., Ltd., priority 2023, dated 2024)
